Measured values reported in article PMC7026418, “The kinase polypharmacology landscape of clinical PARP inhibitors” (Scientific Reports, 2020).
Read-outs that look alike come from different tables or passages of the source. Blank lines part the entries; values can stand above or below the compound they belong to.

Legend:
Assay in all cases: biochemical
Set-up in all cases: DiscoveRx KINOMEscan active site-directed competition binding; percent of control kinase bound to immobilised ligand
CDKL2 = molecular target: T1, CDKL2 (Homo sapiens, UniProt Q92772)
T1 sequence (Q92772 1-493): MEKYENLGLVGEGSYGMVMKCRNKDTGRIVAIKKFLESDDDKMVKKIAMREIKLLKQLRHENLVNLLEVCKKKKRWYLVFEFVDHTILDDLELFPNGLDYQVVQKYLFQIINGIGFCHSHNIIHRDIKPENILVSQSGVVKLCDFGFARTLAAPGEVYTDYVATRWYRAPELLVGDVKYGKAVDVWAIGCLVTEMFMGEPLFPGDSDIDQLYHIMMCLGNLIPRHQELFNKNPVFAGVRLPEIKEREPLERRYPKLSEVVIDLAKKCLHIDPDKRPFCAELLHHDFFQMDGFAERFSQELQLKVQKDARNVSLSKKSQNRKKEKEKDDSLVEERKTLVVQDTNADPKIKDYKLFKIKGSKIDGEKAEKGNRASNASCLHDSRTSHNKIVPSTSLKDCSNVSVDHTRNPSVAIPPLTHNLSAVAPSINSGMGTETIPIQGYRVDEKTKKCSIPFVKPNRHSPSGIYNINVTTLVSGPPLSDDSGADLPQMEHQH

IRAK3 = molecular target: T2, IRAK3 (Homo sapiens, UniProt Q9Y616)
T2 sequence (Q9Y616 1-596): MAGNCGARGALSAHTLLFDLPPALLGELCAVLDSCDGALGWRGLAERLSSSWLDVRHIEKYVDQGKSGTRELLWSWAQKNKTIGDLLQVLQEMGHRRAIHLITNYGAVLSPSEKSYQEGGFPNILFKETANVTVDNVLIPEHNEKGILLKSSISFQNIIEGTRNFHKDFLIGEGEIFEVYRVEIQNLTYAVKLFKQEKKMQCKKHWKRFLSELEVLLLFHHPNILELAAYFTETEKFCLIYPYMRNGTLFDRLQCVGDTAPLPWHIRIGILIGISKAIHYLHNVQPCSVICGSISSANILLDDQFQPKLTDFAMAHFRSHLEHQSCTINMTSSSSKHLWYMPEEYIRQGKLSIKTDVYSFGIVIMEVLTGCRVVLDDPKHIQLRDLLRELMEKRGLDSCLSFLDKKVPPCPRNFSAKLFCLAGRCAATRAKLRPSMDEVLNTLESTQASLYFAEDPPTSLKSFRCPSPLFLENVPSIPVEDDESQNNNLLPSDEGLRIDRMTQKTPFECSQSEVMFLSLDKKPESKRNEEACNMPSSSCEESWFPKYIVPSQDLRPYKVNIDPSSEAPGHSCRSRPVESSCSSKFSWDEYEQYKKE

JNK2 = molecular target: T3, JNK2 (Homo sapiens, UniProt P45984)
T3 construct: gene MAPK9

MAP4K5 = MAP4K5 (Homo sapiens, UniProt Q9Y4K4)
NEK9 = molecular target: T4, NEK9 (Homo sapiens, UniProt Q8TD19)
T4 sequence (Q8TD19 1-979): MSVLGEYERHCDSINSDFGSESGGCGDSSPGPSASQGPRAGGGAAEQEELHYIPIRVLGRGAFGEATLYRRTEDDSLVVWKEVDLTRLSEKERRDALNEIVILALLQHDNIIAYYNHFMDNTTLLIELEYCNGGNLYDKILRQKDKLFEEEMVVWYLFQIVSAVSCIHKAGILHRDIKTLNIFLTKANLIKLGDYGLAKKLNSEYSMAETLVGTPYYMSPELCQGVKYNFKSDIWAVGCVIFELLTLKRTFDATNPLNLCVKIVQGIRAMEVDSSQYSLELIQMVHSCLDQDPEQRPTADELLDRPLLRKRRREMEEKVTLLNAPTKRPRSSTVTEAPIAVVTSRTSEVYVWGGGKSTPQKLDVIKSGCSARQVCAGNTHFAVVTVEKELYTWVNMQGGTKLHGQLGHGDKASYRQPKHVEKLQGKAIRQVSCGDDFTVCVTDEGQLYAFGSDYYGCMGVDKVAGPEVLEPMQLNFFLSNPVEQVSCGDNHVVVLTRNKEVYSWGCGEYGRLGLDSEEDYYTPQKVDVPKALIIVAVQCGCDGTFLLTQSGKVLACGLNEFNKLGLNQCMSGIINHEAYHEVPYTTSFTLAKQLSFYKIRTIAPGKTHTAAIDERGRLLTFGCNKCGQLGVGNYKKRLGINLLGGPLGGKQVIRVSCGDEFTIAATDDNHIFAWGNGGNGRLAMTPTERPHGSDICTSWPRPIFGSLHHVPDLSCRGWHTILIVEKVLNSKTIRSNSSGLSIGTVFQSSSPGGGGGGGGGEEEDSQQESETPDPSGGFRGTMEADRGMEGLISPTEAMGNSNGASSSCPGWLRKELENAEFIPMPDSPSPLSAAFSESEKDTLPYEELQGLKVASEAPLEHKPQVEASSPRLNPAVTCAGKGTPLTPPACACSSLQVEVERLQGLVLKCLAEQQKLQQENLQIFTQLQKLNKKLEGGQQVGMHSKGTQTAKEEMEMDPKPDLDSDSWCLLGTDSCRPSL

PIK3CA(C420R) = PIK3CA(C420R) (Homo sapiens, UniProt P42336, C420R)
PIK3CB = PIK3CB (Homo sapiens, UniProt P42338)
SYK = SYK (Homo sapiens, UniProt P43405)
WNK1 = WNK1 (Homo sapiens, UniProt Q9H4A3)
[1] = read-out: Niraparib (MK-4827) / %Ctrl @ 10000nM
[2] = read-out: Olaparib / %Ctrl @ 10000nM
[3] = read-out: Rucaparib / %Ctrl @ 10000nM, binding competition, % of control
[4] = read-out: Talazoparib (BMN 673) / %Ctrl @ 10000nM

MAP4K5, sequence (Q9Y4K4 whole entry): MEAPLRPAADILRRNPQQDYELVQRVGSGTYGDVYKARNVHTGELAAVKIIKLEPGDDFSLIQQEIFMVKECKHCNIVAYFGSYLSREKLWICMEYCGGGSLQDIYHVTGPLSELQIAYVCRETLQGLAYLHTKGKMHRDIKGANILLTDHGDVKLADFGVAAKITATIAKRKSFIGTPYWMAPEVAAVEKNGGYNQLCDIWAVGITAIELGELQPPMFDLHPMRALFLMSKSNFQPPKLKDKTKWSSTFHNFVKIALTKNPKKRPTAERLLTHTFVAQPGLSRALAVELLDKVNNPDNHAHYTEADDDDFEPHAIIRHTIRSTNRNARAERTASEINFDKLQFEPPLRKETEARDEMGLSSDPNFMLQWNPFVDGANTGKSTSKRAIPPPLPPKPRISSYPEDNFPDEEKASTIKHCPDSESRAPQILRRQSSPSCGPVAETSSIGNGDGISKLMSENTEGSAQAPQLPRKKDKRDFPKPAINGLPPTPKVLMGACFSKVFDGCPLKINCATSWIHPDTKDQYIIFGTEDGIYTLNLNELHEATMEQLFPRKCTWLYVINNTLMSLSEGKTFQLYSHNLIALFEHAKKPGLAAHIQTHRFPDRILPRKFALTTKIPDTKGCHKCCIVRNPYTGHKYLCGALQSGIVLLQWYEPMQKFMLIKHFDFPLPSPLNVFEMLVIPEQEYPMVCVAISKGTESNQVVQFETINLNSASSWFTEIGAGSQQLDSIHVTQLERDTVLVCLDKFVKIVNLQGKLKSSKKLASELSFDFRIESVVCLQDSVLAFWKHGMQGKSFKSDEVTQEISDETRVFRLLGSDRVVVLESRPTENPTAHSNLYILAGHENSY
PIK3CA(C420R), sequence (P42336 whole entry C420R): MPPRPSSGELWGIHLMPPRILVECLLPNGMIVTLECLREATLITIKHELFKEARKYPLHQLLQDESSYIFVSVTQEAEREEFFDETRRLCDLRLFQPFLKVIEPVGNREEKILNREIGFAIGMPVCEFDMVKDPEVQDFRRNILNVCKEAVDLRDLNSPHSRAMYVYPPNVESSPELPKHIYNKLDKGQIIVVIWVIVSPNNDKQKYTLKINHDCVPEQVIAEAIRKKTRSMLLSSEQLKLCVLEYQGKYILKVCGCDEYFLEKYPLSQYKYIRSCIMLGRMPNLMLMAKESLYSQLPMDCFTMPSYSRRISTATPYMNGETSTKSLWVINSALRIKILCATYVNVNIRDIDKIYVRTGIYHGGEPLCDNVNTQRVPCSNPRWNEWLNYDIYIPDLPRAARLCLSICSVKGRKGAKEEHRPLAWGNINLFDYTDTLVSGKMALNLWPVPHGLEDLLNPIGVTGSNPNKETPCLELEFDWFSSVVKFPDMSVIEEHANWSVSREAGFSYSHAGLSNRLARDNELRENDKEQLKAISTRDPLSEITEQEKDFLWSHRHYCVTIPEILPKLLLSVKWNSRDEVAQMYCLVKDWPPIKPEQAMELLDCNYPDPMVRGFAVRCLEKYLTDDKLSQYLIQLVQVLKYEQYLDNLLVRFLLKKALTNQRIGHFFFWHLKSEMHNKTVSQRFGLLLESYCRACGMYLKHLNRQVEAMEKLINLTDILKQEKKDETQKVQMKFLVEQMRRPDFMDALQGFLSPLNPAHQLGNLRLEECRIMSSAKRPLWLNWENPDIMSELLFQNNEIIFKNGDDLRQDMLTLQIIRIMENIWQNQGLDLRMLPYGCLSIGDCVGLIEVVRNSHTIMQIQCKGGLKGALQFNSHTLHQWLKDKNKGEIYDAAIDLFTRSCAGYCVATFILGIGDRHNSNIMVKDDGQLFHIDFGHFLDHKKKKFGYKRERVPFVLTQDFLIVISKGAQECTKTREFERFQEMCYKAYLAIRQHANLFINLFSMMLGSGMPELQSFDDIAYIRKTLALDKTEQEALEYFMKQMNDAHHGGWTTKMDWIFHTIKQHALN
WNK1, sequence (Q9H4A3 whole entry): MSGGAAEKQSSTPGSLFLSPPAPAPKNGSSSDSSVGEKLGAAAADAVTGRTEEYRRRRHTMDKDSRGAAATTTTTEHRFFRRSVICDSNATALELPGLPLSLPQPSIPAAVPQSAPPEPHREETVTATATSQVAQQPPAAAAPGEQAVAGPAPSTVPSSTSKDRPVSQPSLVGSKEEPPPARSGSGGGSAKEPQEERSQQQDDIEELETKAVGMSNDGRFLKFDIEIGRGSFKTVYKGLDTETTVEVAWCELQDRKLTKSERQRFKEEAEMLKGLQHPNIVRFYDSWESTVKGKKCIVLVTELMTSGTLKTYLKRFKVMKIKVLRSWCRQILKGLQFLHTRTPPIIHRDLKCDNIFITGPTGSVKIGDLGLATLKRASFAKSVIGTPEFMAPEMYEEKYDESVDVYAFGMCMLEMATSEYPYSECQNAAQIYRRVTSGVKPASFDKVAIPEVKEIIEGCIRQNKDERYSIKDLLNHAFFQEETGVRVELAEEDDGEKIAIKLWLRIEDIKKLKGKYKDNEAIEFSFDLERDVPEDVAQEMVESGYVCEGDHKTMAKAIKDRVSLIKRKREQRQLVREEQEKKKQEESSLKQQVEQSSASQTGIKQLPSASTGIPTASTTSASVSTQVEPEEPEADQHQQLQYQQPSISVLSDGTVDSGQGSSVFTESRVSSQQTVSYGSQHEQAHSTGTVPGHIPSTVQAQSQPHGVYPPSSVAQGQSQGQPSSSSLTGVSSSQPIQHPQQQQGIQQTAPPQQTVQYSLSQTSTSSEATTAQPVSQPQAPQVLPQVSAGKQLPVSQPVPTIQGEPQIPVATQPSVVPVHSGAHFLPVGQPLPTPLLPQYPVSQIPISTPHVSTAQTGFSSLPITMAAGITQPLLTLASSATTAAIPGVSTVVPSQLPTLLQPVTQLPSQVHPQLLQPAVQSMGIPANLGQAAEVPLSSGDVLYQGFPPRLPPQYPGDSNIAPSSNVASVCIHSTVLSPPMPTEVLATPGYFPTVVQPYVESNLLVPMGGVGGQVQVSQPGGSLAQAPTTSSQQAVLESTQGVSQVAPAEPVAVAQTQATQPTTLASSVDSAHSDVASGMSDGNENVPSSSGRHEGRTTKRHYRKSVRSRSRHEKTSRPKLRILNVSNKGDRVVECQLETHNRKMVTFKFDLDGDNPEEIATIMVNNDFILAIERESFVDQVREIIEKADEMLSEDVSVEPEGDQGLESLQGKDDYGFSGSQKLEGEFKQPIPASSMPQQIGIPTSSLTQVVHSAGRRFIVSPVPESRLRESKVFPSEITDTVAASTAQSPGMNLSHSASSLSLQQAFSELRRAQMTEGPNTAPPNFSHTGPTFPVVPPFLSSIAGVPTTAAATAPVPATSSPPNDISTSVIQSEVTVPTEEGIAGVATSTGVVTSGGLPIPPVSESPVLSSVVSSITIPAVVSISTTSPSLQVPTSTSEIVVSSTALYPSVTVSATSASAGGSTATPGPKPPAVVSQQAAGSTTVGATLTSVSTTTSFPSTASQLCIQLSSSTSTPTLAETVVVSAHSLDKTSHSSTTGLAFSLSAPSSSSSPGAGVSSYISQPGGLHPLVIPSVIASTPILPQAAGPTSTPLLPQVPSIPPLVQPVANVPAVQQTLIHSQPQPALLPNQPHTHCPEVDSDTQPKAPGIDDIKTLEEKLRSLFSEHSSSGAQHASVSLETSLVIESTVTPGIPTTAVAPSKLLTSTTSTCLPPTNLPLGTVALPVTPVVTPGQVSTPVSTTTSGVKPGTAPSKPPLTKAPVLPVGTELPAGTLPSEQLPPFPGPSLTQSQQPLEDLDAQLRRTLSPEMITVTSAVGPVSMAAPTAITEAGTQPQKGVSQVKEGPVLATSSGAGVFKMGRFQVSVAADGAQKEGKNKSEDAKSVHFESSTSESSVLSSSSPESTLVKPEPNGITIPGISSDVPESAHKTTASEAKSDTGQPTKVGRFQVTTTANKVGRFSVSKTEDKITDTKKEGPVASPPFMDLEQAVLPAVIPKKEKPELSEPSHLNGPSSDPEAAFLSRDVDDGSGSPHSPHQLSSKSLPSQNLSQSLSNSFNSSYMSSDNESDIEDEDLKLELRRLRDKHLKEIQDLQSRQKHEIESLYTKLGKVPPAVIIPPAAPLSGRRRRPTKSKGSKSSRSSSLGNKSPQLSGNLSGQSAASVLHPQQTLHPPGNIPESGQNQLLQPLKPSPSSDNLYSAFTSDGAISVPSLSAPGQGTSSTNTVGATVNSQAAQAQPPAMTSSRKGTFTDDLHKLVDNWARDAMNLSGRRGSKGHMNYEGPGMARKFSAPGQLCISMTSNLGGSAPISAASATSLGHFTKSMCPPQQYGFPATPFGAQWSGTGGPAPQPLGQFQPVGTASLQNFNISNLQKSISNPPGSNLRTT
T3 sequence (P45984 whole entry): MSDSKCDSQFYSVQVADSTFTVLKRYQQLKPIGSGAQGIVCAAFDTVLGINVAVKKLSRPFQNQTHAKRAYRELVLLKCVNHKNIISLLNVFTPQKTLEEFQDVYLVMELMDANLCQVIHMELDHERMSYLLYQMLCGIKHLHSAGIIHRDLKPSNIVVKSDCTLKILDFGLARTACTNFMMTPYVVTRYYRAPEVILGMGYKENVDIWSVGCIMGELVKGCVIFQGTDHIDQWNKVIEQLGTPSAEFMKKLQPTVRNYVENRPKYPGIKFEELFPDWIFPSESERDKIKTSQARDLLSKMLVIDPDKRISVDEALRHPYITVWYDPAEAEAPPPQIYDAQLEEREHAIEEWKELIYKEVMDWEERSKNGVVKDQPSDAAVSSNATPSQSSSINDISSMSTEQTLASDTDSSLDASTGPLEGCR

Structure (SMILES): NC(=O)c1cccc2cn(-c3ccc([C@@H]4CCCNC4)cc3)nc12 [Niraparib]
percent of control binding at 10 µM (CDKL2; [1]): 23% | percent of control binding at 10 µM (IRAK3; [1]): 90% | percent of control binding at 10 µM (JNK2; [1]): 95% | percent of control binding at 10 µM (MAP4K5; [1]): 100% | percent of control binding at 10 µM (NEK9; [1]): 100% | percent of control binding at 10 µM (PIK3CA(C420R); [1]): 98% | percent of control binding at 10 µM (PIK3CB; [1]): 100% | percent of control binding at 10 µM (SYK; [1]): 82% | percent of control binding at 10 µM (WNK1; [1]): 100%

percent of control binding at 10 µM (CDKL2; [2]): 99% | percent of control binding at 10 µM (IRAK3; [2]): 82% | percent of control binding at 10 µM (JNK2; [2]): 81% | percent of control binding at 10 µM (MAP4K5; [2]): 96% | percent of control binding at 10 µM (PIK3CB; [2]): 90% | percent of control binding at 10 µM (SYK; [2]): 100% | percent of control binding at 10 µM (WNK1; [2]): 76%
Structure (SMILES): O=C(c1cc(Cc2n[nH]c(=O)c3ccccc23)ccc1F)N1CCN(C(=O)C2CC2)CC1 [Olaparib]
percent of control binding at 10 µM (NEK9; [2]): 100%

percent of control binding at 10 µM (CDKL2; [3]): 59% | percent of control binding at 10 µM (IRAK3; [3]): 86% | percent of control binding at 10 µM (JNK2; [3]): 68% | percent of control binding at 10 µM (MAP4K5; [3]): 98% | percent of control binding at 10 µM (PIK3CA(C420R); [3]): 74% | percent of control binding at 10 µM (PIK3CB; [3]): 83% | percent of control binding at 10 µM (SYK; [3]): 100% | percent of control binding at 10 µM (WNK1; [3]): 81%
Structure (SMILES): CNCc1ccc(-c2[nH]c3cc(F)cc4c3c2CCNC4=O)cc1 [Rucaparib]
percent of control binding at 10 µM (NEK9; [3]): 100%

percent of control binding at 10 µM (CDKL2; [4]): 100% | percent of control binding at 10 µM (IRAK3; [4]): 100% | percent of control binding at 10 µM (JNK2; [4]): 95% | percent of control binding at 10 µM (MAP4K5; [4]): 100% | percent of control binding at 10 µM (PIK3CA(C420R); [4]): 100% | percent of control binding at 10 µM (PIK3CB; [4]): 100% | percent of control binding at 10 µM (SYK; [4]): 85% | percent of control binding at 10 µM (WNK1; [4]): 100%
Structure (SMILES): Cn1ncnc1[C@H]1c2n[nH]c(=O)c3cc(F)cc(c23)N[C@@H]1c1ccc(F)cc1 [Talazoparib]
percent of control binding at 10 µM (NEK9; [4]): 99%
